Assay results: patent US12295997B2, “Prostate neoantigens and their uses” (Janssen Biotech, Inc., priority 2020, dated 2025)

System: CD8+ and CD4+ T cells (autologous CD3+ Pan-T cells isolated from human normal PBMCs)
Assay: Exogenous autologous normal donor restimulation assay (15-mer overlapping peptide pools on CD1c+ dendritic cells, TNFα/IFNγ flow cytometry)
Format: cell-based
Conditions: 15-mer overlapping peptide pool; for Maximum Fold Change Over Background CD4+ cells / Maximum Fold Change Over Background CD8+ cells / Maximum Frequency of TNFα/IFNγ Double Positive CD4+ T cells / Maximum Frequency of TNFα/IFNγ Double Positive CD8+ T cells: Table 25; for Maximum Fold Change Over Background CD4+ cells: TNFα+IFNγ+ CD4+ T cells; for Maximum Fold Change Over Background CD4+ cells / Maximum Fold Change Over Background CD8+ cells: highest fold change over negative control across normal donors; for Maximum Fold Change Over Background CD8+ cells: TNFα+IFNγ+ CD8+ T cells; for Maximum Frequency of TNFα/IFNγ Double Positive CD4+ T cells / Maximum Frequency of TNFα/IFNγ Double Positive CD8+ T cells: highest frequency across normal donors
Outline: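 Autologous CD3+ Pan-T cells from normal donors were co-cultured 12 days with irradiated CD1c+ DCs pulsed with 15-mer overlapping neoantigen peptide pools at 2.5–10 μg/mL, with IL-15 and IL-2 support. Cells were restimulated on day 11, then TNFα/IFNγ double-positive CD8+ and CD4+ frequencies read by flow. Positive means ≥3-fold over DMSO and ≥0.01%.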

[1] = Table 28, additional neoantigens, highest across normal donors

| Molecule | Maximum Fold Change Over Background CD4+ cells | Maximum Fold Change Over Background CD8+ cells | Maximum Frequency of TNFα/IFNγ Double Positive CD4+ T cells | Maximum Frequency of TNFα/IFNγ Double Positive CD8+ T cells | Max. Fold Change over background CD4+ TNFαINFγ double positive DP [1] | Max. Fold Change over background CD8+ TNFαINFγ double positive DP [1] | Max. Frequency of CD4+ TNFαINFγ DP [1] | Max. Frequency of CD8+ TNFαINFγ DP [1] |
| --- | --- | --- | --- | --- | --- | --- | --- | --- |
| SLYHREKQLIAMDSAI (listed as Homo sapiens) [Neoantigen P22] | 18.16 | 1.56 | 0.075 | 0.025 | – | – | – | – |
| YEAGMTLGEKFRVGNCKHLKMTRP (listed as Homo sapiens) [Neoantigen P82] | 4.44 | 2.92 | 0.17 | 0.09 | – | – | – | – |
| YEAGMTLGGKILFFLFLLLPLSPFSLIF (listed as Homo sapiens) [Neoantigen P87] | 7.86 | 9.20 | 0.110 | 0.460 | – | – | – | – |
| P19 (peptide, listed as Homo sapiens) WTPIPVLTRWPLPHPPPWRRATSCRMARSSPSATSGSSVRRRCSSLPSWVWNLAASTRPRSTPS | – | – | – | – | 6.67 | 4.76 | 0.16 | 0.15 |
